Laboratory results: PubChem BioAssay (NCI)
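GI50: concentration for 50% inhibition of growth. TGI: concentration producing complete growth inhibition.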

Legend:
Assay in all cases: DTP human tumour cell line panel, 384-well format
BT-549 breast = tested on: BT-549 breast
EKVX NSCLC = tested on: EKVX NSCLC
HL-60(TB) leukemia = tested on: HL-60(TB) leukemia
M14 melanoma = tested on: M14 melanoma
MDA-MB-231 breast = tested on: MDA-MB-231 breast
MDA-MB-435 melanoma = tested on: MDA-MB-435 melanoma
MDA-MB-468 breast = tested on: MDA-MB-468 breast
MOLT-4 leukemia = tested on: MOLT-4 leukemia
SF-268 CNS = tested on: SF-268 CNS
SK-MEL-2 melanoma = tested on: SK-MEL-2 melanoma
SK-OV-3 ovarian = tested on: SK-OV-3 ovarian
TK-10 renal = tested on: TK-10 renal
UACC-257 melanoma = tested on: UACC-257 melanoma

`O=C(/C=C\n1cnc(-c2cc(C(F)(F)F)cc(C(F)(F)F)c2)n1)NNc1cnccn1` gave a GI50 (BT-549 breast) of 0.0199 µM, a TGI (BT-549 breast) of 0.0621 µM and a GI50 (EKVX NSCLC) of 1.34 µM. It also gave a TGI (EKVX NSCLC) of 13.1 µM, a GI50 (HL-60(TB) leukemia) of 0.041 µM and a TGI (HL-60(TB) leukemia) of 0.185 µM. The GI50 (M14 melanoma) was 0.353 µM, the TGI (M14 melanoma) was 1.67 µM and the GI50 (MDA-MB-231 breast) was 0.0517 µM. It also gave a TGI (MDA-MB-231 breast) of 0.244 µM, a GI50 (MDA-MB-435 melanoma) of 0.177 µM and a TGI (MDA-MB-435 melanoma) of 0.721 µM. It also gave a GI50 (MDA-MB-468 breast) of 0.0903 µM, a TGI (MDA-MB-468 breast) of 0.249 µM and a GI50 (MOLT-4 leukemia) of 0.0163 µM. It also gave a TGI (MOLT-4 leukemia) of 0.0311 µM, a GI50 (SF-268 CNS) of 0.0407 µM and a TGI (SF-268 CNS) of 0.31 µM. The GI50 (SK-MEL-2 melanoma) was 0.119 µM, the TGI (SK-MEL-2 melanoma) was 0.282 µM and the GI50 (SK-OV-3 ovarian) was 0.919 µM. The TGI (SK-OV-3 ovarian) was 13.6 µM, the GI50 (TK-10 renal) was 0.126 µM and the TGI (TK-10 renal) was 13.2 µM. It also gave a GI50 (UACC-257 melanoma) of 0.977 µM and a TGI (UACC-257 melanoma) of 8.46 µM.
